Experimental data from ChEMBL document CHEMBL6096698, “Discovery of a Selective and Orally Bioavailable RET Degrader with Effectiveness in Various Mutations” (J Med Chem, 2025).
Activity calls are given as the source filed them. The rule behind the calls is not given here.

Columns and labels:
BaF3 [1] = test: Antiproliferative activity against mouse BaF3 cells stably expressing KIF5B-RET incubated for 72 hrs by CCK8 assay; type: functional, cell-based; conditions: BaF3, 72 h
BaF3 [2] = test: PROTAC activity at CRBN/KIF5B-RET (unknown origin) expressed in mouse BaF3 cells assessed as induction of RET degradation at 10 nM incubated for 24 hrs by immunoblot analysis relative to control; type: cell-based
BaF3 [3] = test: Antiproliferative activity against mouse BaF3 cells stably expressing KIF5B-RET G810R mutant incubated for 72 hrs by CCK8 assay; type: functional, cell-based; conditions: BaF3, 72 h
BaF3 [4] = test: Antiproliferative activity against mouse BaF3 cells stably expressing KIF5B-RET G810S mutant incubated for 72 hrs by CCK8 assay; type: functional, cell-based; conditions: BaF3, 72 h
BaF3 [5] = test: Antiproliferative activity against mouse BaF3 cells stably expressing CCDC6-RET incubated for 72 hrs by CCK8 assay; type: functional, cell-based; conditions: BaF3, 72 h
HeLa = test: Cytotoxicity against human HeLa cells; type: functional, cell-based
A549 = test: Cytotoxicity against human A549 cells; type: functional, cell-based
MCF7 = test: Cytotoxicity against human MCF7 cells; type: functional, cell-based
HL-60 = test: Cytotoxicity against human HL-60 cells; type: functional, cell-based
BaF3 [6] = test: Cytotoxicity against mouse BaF3 cells; type: functional, cell-based
BaF3 [7] = test: PROTAC activity at CRBN/KIF5B-RET (unknown origin) expressed in mouse BaF3 cells assessed as induction of RET degradation at 1 to 100 nM incubated for 24 hrs by immunoblot analysis relative to control; type: cell-based; conditions: dose 1-100 nM
BaF3 [8] = test: PROTAC activity at CRBN/KIF5B-RET (unknown origin) expressed in mouse BaF3 cells assessed as induction of RET degradation at 20 nM incubated for 8 to 24 hrs by immunoblot analysis; type: cell-based; conditions: time 8-24 hrs
BaF3 [9] = test: PROTAC activity at CRBN/KIF5B-RET (unknown origin) expressed in mouse BaF3 cells assessed as induction of RET degradation at 10 nM incubated for 24 hrs by immunoblot analysis; type: cell-based
[10] = biological target: Proto-oncogene tyrosine-protein kinase receptor Ret (Homo sapiens, UniProt P07949); test: Inhibition of RET (unknown origin) at 10 nM by kinase profiling analysis relative to control
Sequence of Proto-oncogene tyrosine-protein kinase receptor Ret (P07949 whole entry): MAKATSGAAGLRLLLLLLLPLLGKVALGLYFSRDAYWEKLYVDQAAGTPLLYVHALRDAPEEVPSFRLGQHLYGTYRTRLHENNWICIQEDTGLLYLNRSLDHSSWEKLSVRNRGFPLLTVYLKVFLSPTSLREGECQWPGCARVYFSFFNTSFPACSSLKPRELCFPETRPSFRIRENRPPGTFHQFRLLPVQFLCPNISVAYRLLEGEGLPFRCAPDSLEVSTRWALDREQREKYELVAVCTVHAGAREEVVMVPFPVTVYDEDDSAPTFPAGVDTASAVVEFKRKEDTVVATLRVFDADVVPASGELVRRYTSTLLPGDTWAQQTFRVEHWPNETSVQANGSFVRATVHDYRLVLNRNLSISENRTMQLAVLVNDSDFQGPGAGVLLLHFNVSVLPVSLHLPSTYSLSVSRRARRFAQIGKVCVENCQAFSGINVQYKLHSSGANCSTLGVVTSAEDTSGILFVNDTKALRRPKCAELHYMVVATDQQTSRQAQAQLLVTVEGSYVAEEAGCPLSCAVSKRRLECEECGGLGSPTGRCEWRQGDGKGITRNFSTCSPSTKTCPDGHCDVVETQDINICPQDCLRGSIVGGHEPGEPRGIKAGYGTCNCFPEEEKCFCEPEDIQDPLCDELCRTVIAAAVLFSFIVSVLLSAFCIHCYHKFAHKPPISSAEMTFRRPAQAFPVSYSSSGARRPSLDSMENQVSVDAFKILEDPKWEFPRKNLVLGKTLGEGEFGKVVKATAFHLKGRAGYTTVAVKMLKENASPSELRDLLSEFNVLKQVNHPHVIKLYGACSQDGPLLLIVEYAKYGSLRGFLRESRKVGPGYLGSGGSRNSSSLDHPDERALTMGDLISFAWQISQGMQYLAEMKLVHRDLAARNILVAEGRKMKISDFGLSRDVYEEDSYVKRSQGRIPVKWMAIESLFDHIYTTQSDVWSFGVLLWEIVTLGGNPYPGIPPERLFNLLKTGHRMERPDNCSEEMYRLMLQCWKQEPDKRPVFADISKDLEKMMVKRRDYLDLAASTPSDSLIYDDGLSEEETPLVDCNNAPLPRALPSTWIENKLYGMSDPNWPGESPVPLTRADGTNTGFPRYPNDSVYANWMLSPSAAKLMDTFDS

[11] = Induction of apoptosis in mouse BaF3 cells stably expressing KIF5B-RET G810C mutant assessed as necrotic cells at 10 nM incubated for 48 hrs by Annexin V-FITC/PI staining based flow cytometry (reference value: 0.94 %); type: functional
[12] = Induction of apoptosis in mouse BaF3 cells stably expressing KIF5B-RET G810C mutant assessed as necrotic cells at 20 nM incubated for 48 hrs by Annexin V-FITC/PI staining based flow cytometry (reference value: 0.94 %); type: functional
[13] = Induction of apoptosis in mouse BaF3 cells stably expressing KIF5B-RET G810C mutant assessed as viable cells at 40 nM incubated for 48 hrs by Annexin V-FITC/PI staining based flow cytometry (reference value: 92.21 %); type: functional; conditions: read-out: Activity
[14] = Induction of apoptosis in mouse BaF3 cells stably expressing KIF5B-RET G810C mutant assessed as late apoptotic cells at 40 nM incubated for 48 hrs by Annexin V-FITC/PI staining based flow cytometry (reference value: 5.99 %); type: functional
[15] = Induction of apoptosis in mouse BaF3 cells stably expressing KIF5B-RET G810C mutant assessed as necrotic cells at 40 nM incubated for 48 hrs by Annexin V-FITC/PI staining based flow cytometry (reference value: 0.94 %); type: functional
[16] = Tmax in Sprague-Dawley rat at 1 mg/kg, iv measured for 24 hrs by LC-MS/MS analysis; type: ADME, organism-based; conditions: in vivo
[17] = Cmax in Sprague-Dawley rat at 1 mg/kg, iv measured for 24 hrs by LC-MS/MS analysis; type: ADME, organism-based; conditions: in vivo
[18] = AUC (0 to infinity) in Sprague-Dawley rat at 10 mg/kg, po measured for 24 hrs by LC-MS/MS analysis; type: ADME, organism-based; conditions: in vivo
BaF3 [19] = test: Antitumor activity against mouse BaF3 cells stably expressing KIF5B-RET G810C mutant implanted in BALB/c nu/nu mouse at 10 mg/kg, po qd treated for 10 days relative to control; type: functional; conditions: BaF3, 240 h, time 10 day, read-out: TGI
[20] = Toxicity in BALB/c nu/nu mouse implanted with mouse BaF3 cells stably expressing KIF5B-RET G810C mutant assessed as body weight loss at 10 mg/kg, po qd treated for 10 days; type: organism-based; conditions: in vivo, 240 h, time 10 day
[21] = tested on: Kinesin-1 heavy chain/ Tyrosine-protein kinase receptor RET (Homo sapiens), P07949+P33176 [G810C]; test: In vivo PROTAC activity at CRBN/KIF5B-RET G810C mutant (unknown origin) expressed in mouse BaF3 cells implanted in BALB/c nu/nu mouse assessed as induction of RET G810C mutant degradation at 10 mg/kg, po bid treated for 10 days by Western blot analysis; type: functional, organism-based; conditions: time 10.0 day
[22] = tested on: Kinesin-1 heavy chain/ Tyrosine-protein kinase receptor RET (Homo sapiens), P07949+P33176 [G810C]; test: In vivo PROTAC activity at CRBN/KIF5B-RET G810C mutant (unknown origin) expressed in mouse BaF3 cells implanted in BALB/c nu/nu mouse assessed as induction of RET G810C mutant degradation at 10 mg/kg, po qd treated for 10 days by Western blot analysis; type: functional, organism-based; conditions: time 10.0 day

Which IC50 (BaF3 [1]) does the source give for `COc1ccc(CN2C3CC2CN(c2ccc(-c4cc(N5CCC(N6CCN(CCCC#Cc7cccc8c7CN(C7CCC(=O)NC7=O)C8=O)CC6)CC5)cn5ncc(C#N)c45)cn2)C3)cn1` (stereo unspecified) here?
The IC50 was 0.0026 µM.

What about the Activity (BaF3 [2]) of the same molecule?
The Activity was 65%.

What about the IC50 (BaF3 [3]) of the same molecule?
The IC50 was 0.165 µM.

What about the IC50 (BaF3 [4]) of the same molecule?
The IC50 was 0.0226 µM.

What about the IC50 (BaF3 [5]) of the same molecule?
The IC50 was 0.0024 µM.

What about the IC50 (HeLa) of the same molecule?
Its IC50 is greater than 5 µM.

And the IC50 (A549)?
The IC50 was greater than 5 µM.

What about the IC50 (MCF7) of the same molecule?
The IC50 was greater than 5 µM.

And the IC50 (HL-60)?
The IC50 was greater than 5 µM.

And the IC50 (BaF3 [6])?
The IC50 was greater than 5 µM.

What about the Emax (BaF3 [7]) of the same molecule?
Its Emax is 92%.

And the Activity (BaF3 [8])?
The Activity was “Active”.

And the Activity (BaF3 [9])?
Its Activity is “Active”.

And the inhibition [10]?
Its inhibition is greater than 50%.

What about the Activity [11] of the same molecule?
Its Activity is 1.45%.

What about the Activity [12] of the same molecule?
The Activity was 1.01%.

And the viability at 0.04 µM [13]?
Its viability at 0.04 µM is 27.9%.

And the Activity [14]?
Its Activity is 15.31%.

And the Activity [15]?
Its Activity is 0.54%.

And the Tmax [16]?
The Tmax was 4.98 min.

What about the Cmax [17] of the same molecule?
The Cmax was 121 ng/mL.

And the AUC(0-inf) [18]?
The AUC(0-inf) was 1190 ng·h/mL.

What about the inhibition in vivo at 10 mg/kg (BaF3 [19]) of the same molecule?
Its inhibition in vivo at 10 mg/kg is 62.3%.

What about the Activity [20] of the same molecule?
Its Activity is “Non-toxic”.

What about the Activity [21] of the same molecule?
The Activity was “Active”.

What about the Activity [22] of the same molecule?
Its Activity is “Active”.
